Experimental data published in patent US5319085A, “Quinoline derivative having serotonin-3 receptor antagonizing activity” (priority 1990, dated 1994).

Assays:
[1] = test system: 5HT3 receptor; experiment: 5HT3 receptor binding test, [3H] quipazine, NG108-15 cell membrane fraction; design: species or system rat; details: for Inhibition Rate (%) (Concentration 10^-7 M) / Inhibition Rate (%) (Concentration 10^-8 M): inhibition of 2 nM [3H] quipazine binding; for Ki: [3H] quipazine, Cheng Prusoff equation, 37° C., 60 minutes
Method: Using rat neuroblastoma-glyoma NG108-15 cell membrane fraction, the binding activities of the test compounds to 5HT3 receptor were examined.
A membrane fraction of NG108-15 cells was prepared according to the method of Neijt et al. [Naunyn-Schmiedeberg's Arch. Parmacol. 337, 493-499 (1988)].
The receptor binding experiment was performed using [^3 H] quipazine [J. Neurochem., 52, 1787 (1989)], a high affinity ligand to 5HT3 receptor.
A membrane fraction obtained from 4×10^5 NG108-15 cells was suspended in 1 ml of 20 mM Tris-hydrochloride buffer (pH 7.5) containing 154 mM sodium chloride. Then, 2 nM [^3 H] quipazine (2519.7 GBq/mmol; Du Pont Co., Ltd.) and various concentrations of the test compound were added to the suspension followed by incubating at 37° C. for 60 minutes. Then, 4 ml of an ice-cooled buffer was added to terminate the reaction and then the mixture was filtered through CF/C glass fiber filter (Whatmann Co., Ltd.). The filter was washed with the buffer, and put in a scintillation vial. Scintisol EX-H (Wako Pure Chemicals, Inc.) was added to the scintillation vial. Radioactivity on the filter was counted in a liquid scintillation counter.
An inhibition rate of the [^3 H] quipazine binding for the test compound was estimated according to the equation; [formula]
Ki values were estimated based on the resultant inhibition rates according to the Cheng Prusoff equation.
In this test, the comparison was made between Compound (I) and Compound C disclosed in Japanese Published Unexamined Patent Application No. 72886/85 as the reference compound.

[2] = test system: Cisplatin-induced vomiting; experiment: Activity against Cisplatin-induced vomiting; type: in vivo, Suncus mirinus; details: for Number of Vomiting (mean ± S.E.M.): 5 to 120 minutes; for Latency (min.) (mean ± S.E.M.): time to first vomiting
Method: Female and male Suncus mirinus animals weighing 23 to 68 g were used, one group consisting of 5 to 10 animals. According to the method of Matsuki et al. (Japan J. Pharmacol., 48, 303 (1988)], the animals were isolated in metal mesh cage (one animal/one cage). One hour after, the test compound or physiological saline (control) was intraperitoneally administered (i.p.) in a volume of 10 ul/g of body weight. Further 30 minutes after administration of the test compound, Cisplatin (20 or 40 mg/kg) was intraperitoneally administered. After administration of Cisplatin, a time period (latency) for the first vomiting and the number of frequencies of vomiting caused in the period of 5 to 120 minutes after administration, were determined. The latency and the number of frequencies in the test compound administered group were compared with those in the control group. The test of significance was performed by Student's t-test.

[3] = test system: ddY strain male mice; experiment: Acute toxicity, minimum lethal dose; type: in vivo; details: mortality for 7 days
Method: The test Compound was orally and intraperitoneally administered to ddY strain male mice weighing 20 to 25 g. MLD (Minimum Lethal Dose) was determined by observing the mortality for 7 days after the administration.

[4] = 0.1 mg/kg i.p., Cisplatin 40 mg/kg
[5] = 0.3 mg/kg i.p., Cisplatin 40 mg/kg
[6] = 1.0 mg/kg i.p., Cisplatin 40 mg/kg
[7] = 10.0 mg/kg i.p., Cisplatin 40 mg/kg
[8] = 0.01 mg/kg i.p., Cisplatin 20 mg/kg
[9] = 0.03 mg/kg i.p., Cisplatin 20 mg/kg
[10] = 0.1 mg/kg i.p., Cisplatin 20 mg/kg
[11] = 0.3 mg/kg i.p., Cisplatin 20 mg/kg
[12] = 1.0 mg/kg i.p., Cisplatin 20 mg/kg

Row | Compound | Inhibition Rate (%) (Concentration 10^-7 M) [1] | Ki [1] [nM] | MLD (Minimum Lethal Dose) ([3]; i.p.) [mg/kg] | MLD (Minimum Lethal Dose) ([3]; p.o.) [mg/kg] | Inhibition Rate (%) (Concentration 10^-8 M) [1] | also measured
1 | CN1[C@@H]2CC[C@H]1C[C@@H](OC(=O)c1cnc3ccccc3c1O)C2 [5S'a, Endo-(8-methyl-8-azabicyclo[3.2.1]oct-3-yl) 4-hydroxy-3-quinolinecarboxylate] | 107 | 6.1 | > 300 | > 100 | – | Number of Vomiting (mean ± S.E.M.) [2, 4]: 29.6 ± 3.5; Latency (min.) (mean ± S.E.M.) [2, 4]: 41.4 ± 0.7 min; Number of Vomiting (mean ± S.E.M.) [2, 5]: 13.2 ± 4.8; Latency (min.) (mean ± S.E.M.) [2, 5]: 69.6 ± 13.4 min; Number of Vomiting (mean ± S.E.M.) [2, 6]: 4.3 ± 2.4; Latency (min.) (mean ± S.E.M.) [2, 6]: 103.5 ± 10.3 min; Number of Vomiting (mean ± S.E.M.) [2, 7]: 7.6 ± 7.6; Latency (min.) (mean ± S.E.M.) [2, 7]: 105.1 ± 14.9 min
2 | CN1[C@@H]2CCC[C@H]1C[C@@H](OC(=O)c1cnc3ccccc3c1)C2 [CSa, Endo-(9-methyl-9-azabicyclo[3.3.1]non-3-yl) 3-quinolinecarboxylate, reference compound] | 84 | 29 | – | – | 12 | –
3 | CCCCOc1cc(C(=O)O[C@H]2C[C@H]3CC[C@@H](C2)N3C)c2ccccc2n1 [Compound 1Sa, Endo-(8-methyl-8-azabicyclo[3.2.1]oct-3-yl) 2-n-butoxy-4-quinolinecarboxylate] | 104 | 0.39 | 200 | 100 | 99 | –
4 | CCCOc1cc(C(=O)O[C@H]2C[C@H]3CC[C@@H](C2)N3C)c2ccccc2n1 [Compound 2Sa, Endo-(8-methyl-8-azabicyclo[3.2.1]oct-3-yl) 2-n-propoxy-4-quinolinecarboxylate] | 104 | 0.32 | 100 | 100 | 101 | –
5 | CC(C)Oc1cc(C(=O)O[C@H]2C[C@H]3CC[C@@H](C2)N3C)c2ccccc2n1 [Compound 3Sa, Endo-(8-methyl-8-azabicyclo[3.2.1]oct-3-yl) 2-isopropoxy-4-quinolinecarboxylate] | 104 | 0.31 | 200 | > 100 | 101 | –
6 | COc1cc(C(=O)O[C@H]2C[C@H]3CC[C@@H](C2)N3C)c2ccccc2n1 [Compound 4Sa, Endo-(8-methyl-8-azabicyclo[3.2.1]oct-3-yl) 2-methoxy-4-quinolinecarboxylate] | 104 | 0.58 | 200 | 50 | 98 | –
7 | CN1[C@@H]2CC[C@H]1C[C@@H](NC(=O)c1cnc3ccccc3c1O)C2 [Compound 6Sa, Endo-N-(8-methyl-8-azabicyclo[3.2.1]oct-3-yl)-4-hydroxy-3-quinolinecarboxamide] | 101 | 2.1 | > 300 | > 100 | 89 | Number of Vomiting (mean ± S.E.M.) [2, 8]: 10.0 ± 4.0; Latency (min.) (mean ± S.E.M.) [2, 8]: 58.2 ± 9.9 min; Number of Vomiting (mean ± S.E.M.) [2, 9]: 8.2 ± 1.4; Latency (min.) (mean ± S.E.M.) [2, 9]: 52.6 ± 4.2 min; Number of Vomiting (mean ± S.E.M.) [2, 10]: 7.4 ± 2.6; Latency (min.) (mean ± S.E.M.) [2, 10]: 85.7 ± 9.7 min; Number of Vomiting (mean ± S.E.M.) [2, 11]: 0.0 ± 0; Latency (min.) (mean ± S.E.M.) [2, 11]: 120.0 ± 0 min; Number of Vomiting (mean ± S.E.M.) [2, 12]: 0.0 ± 0; Latency (min.) (mean ± S.E.M.) [2, 12]: 120.0 ± 0 min
8 | CC(C)COc1cc(C(=O)O[C@H]2C[C@H]3CC[C@@H](C2)N3C)c2ccccc2n1 [Compound 7Sa, Endo-(8-methyl-8-azabicyclo[3.2.1]oct-3-yl) 2-isobutoxy-4-quinolinecarboxylate] | 108 | 0.44 | 300 | > 100 | 101 | –
9 | CCCCCOc1cc(C(=O)O[C@H]2C[C@H]3CC[C@@H](C2)N3C)c2ccccc2n1 [Compound 8Sa, Endo-(8-methyl-8-azabicyclo[3.2.1]oct-3-yl) 2-n-pentyloxy-4-quinolinecarboxylate] | 97 | 0.86 | > 300 | > 100 | 94 | –
10 | CCCCCCOc1cc(C(=O)O[C@H]2C[C@H]3CC[C@@H](C2)N3C)c2ccccc2n1 [Compound 9Sa, Endo-(8-methyl-8-azabicyclo[3.2.1]oct-3-yl) 2-n-hexyloxy-4-quinolinecarboxylate] | 97 | 3.2 | > 300 | 50 | 74 | –
11 | CCOc1cc(C(=O)O[C@H]2C[C@H]3CC[C@@H](C2)N3C)c2ccccc2n1 [Compound 10Sa, Endo-(8-methyl-8-azabicyclo[3.2.1]oct-3-yl) 2-ethoxy-4-quinolinecarboxylate] | 99 | 0.88 | 100 | 50 | 96 | –
